ChEMBL document CHEMBL1138480, “Discovery of highly potent and selective biphenylacylsulfonamide-based beta3-adrenergic receptor agonists and evaluation of physical properties as potential overactive bladder therapies: part 5” (J Med Chem, 2009)

Tests used:
[1] = target: Beta-3 adrenergic receptor (Canis lupus familiaris, UniProt O02662); test: Agonist activity at dog recombinant beta3 adrenergic receptor expressed in CHO cells assessed as cAMP accumulation by enzyme immunoassay; assay type: functional, cell-based
Beta-3 adrenergic receptor (Canis lupus familiaris, UniProt O02662), sequence (O02662 whole entry): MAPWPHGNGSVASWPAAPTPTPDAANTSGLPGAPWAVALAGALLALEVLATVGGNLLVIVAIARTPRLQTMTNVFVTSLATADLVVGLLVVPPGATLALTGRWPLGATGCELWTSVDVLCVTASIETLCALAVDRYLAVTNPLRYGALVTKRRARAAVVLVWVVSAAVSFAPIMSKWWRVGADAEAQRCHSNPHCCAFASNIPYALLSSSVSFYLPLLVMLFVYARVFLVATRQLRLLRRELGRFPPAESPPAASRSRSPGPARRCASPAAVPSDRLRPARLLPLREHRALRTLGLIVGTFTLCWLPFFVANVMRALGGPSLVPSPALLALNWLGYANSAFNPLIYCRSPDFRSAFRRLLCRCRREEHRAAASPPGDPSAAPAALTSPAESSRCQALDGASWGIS

[2] = Inhibition of KCl-induced tonic contraction in Beagle dog detrusor muscle strips preincubated for 15 mins before KCl challenge; assay type: functional; conditions: Canis lupus familiaris
Canis familiaris [3] = test: Inhibition of carbachol-induced increase in intravesical pressure in intraduodenally dosed Beagle dog OAB model for 30 mins measured for 180 mins; assay type: functional, organism-based; conditions: Canis lupus familiaris
[4] = Protein binding in Beagle dog serum; assay type: ADME, cell-free, Canis lupus familiaris; conditions: read-out: PPB (converted)
Canis familiaris [5] = test: Inhibition of carbachol-induced increase in intravesical pressure in Beagle dog OAB model at 10 ug/kg, iv for 30 mins measured for 180 mins; assay type: functional; conditions: Canis lupus familiaris
[6] = Cmax in Beagle dog at 0.10 mg/kg, po by cassette assay; assay type: ADME, organism-based, Canis lupus familiaris; design: dose 0.1 mg/kg, route oral; conditions: in vivo, 0.1 mg/kg
[7] = Cmax in rat at 0.32 mg/kg, po by cassette assay; assay type: ADME, organism-based; design: dose 0.32 mg/kg, route oral; conditions: in vivo
[8] = AUC (0 to 24 hrs) in Beagle dog at 0.10 mg/kg, po by cassette assay; assay type: ADME, organism-based, Canis lupus familiaris; design: time < 24 hr, dose 0.1 mg/kg, route oral; conditions: plasma, 0.1 mg/kg
[9] = Bioavailability in Beagle dog at 0.10 mg/kg, po and iv by cassette assay; assay type: ADME, organism-based, Canis lupus familiaris; conditions: in vivo, 0.1 mg/kg
[10] = Total clearance in rat at 0.32 mg/kg, iv by cassette assay; assay type: ADME, organism-based; design: dose 0.32 mg/kg, route intravenous; conditions: in vivo
[11] = Terminal half life in Beagle dog plasma at 0.10 mg/kg, iv by cassette assay; assay type: ADME, organism-based, Canis lupus familiaris; design: dose 0.1 mg/kg, route intravenous; conditions: 0.1 mg/kg, read-out: beta t1/2 (converted)
[12] = Terminal half life in rat plasma at 0.32 mg/kg, iv by cassette assay; assay type: ADME, organism-based; design: dose 0.32 mg/kg, route intravenous; conditions: read-out: beta t1/2 (converted)
[13] = Total clearance in Beagle dog at 0.10 mg/kg, iv by cassette assay; assay type: ADME, organism-based, Canis lupus familiaris; design: dose 0.1 mg/kg, route intravenous; conditions: in vivo, 0.1 mg/kg
[14] = AUC (0 to 24 hrs) in rat at 0.32 mg/kg, po by cassette assay; assay type: ADME, organism-based; design: time < 24 hr, dose 0.32 mg/kg, route oral; conditions: plasma
[15] = Total clearance in monkey at 0.32 mg/kg, iv by cassette assay; assay type: ADME, organism-based, Macaca mulatta; design: dose 0.32 mg/kg, route intravenous; conditions: rhesus monkey, in vivo
[16] = Bioavailability in rat at 0.32 mg/kg, po and iv by cassette assay; assay type: ADME, organism-based; conditions: in vivo
[17] = Bioavailability in monkey at 0.32 mg/kg, po and iv by cassette assay; assay type: ADME, organism-based, Macaca mulatta; conditions: rhesus monkey, in vivo
[18] = target: Beta-3 adrenergic receptor (Homo sapiens, UniProt P13945); test: Agonist activity at human recombinant beta3 adrenergic receptor expressed in CHO cells assessed as cAMP accumulation by enzyme immunoassay; assay type: functional, cell-based
Beta-3 adrenergic receptor (Homo sapiens, UniProt P13945), sequence (P13945 whole entry): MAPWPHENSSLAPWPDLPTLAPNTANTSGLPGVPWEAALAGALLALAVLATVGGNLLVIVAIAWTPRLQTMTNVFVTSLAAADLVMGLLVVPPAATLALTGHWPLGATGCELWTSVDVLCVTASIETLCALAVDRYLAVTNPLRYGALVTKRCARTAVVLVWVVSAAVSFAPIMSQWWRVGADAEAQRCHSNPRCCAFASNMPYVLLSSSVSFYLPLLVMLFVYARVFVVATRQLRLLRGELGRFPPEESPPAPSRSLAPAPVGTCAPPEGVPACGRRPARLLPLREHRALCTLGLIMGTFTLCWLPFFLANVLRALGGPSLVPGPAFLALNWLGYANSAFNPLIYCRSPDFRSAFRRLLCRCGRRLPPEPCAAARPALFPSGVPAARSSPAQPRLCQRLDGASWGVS

[19] = target: Beta-1 adrenergic receptor (Homo sapiens, UniProt P08588)
Beta-1 adrenergic receptor, sequence (P08588 whole entry): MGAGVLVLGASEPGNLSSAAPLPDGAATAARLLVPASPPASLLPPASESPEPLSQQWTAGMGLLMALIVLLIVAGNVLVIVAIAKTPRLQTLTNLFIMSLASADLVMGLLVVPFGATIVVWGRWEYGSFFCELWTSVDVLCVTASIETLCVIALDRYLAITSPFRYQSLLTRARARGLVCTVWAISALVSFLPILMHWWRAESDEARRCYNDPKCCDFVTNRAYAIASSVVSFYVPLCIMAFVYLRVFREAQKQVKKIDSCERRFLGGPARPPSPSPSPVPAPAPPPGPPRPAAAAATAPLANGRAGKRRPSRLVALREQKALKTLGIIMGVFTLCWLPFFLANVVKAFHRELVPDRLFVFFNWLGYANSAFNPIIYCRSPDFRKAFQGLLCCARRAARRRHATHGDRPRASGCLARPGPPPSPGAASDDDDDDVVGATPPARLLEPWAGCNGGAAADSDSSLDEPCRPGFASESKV
Description: Agonist activity at human recombinant beta-1 adrenergic receptor expressed in CHO cells assessed as cAMP accumulation by enzyme immunoassay

[20] = target: Beta-2 adrenergic receptor (Homo sapiens, UniProt P07550)
Beta-2 adrenergic receptor, sequence (P07550 whole entry): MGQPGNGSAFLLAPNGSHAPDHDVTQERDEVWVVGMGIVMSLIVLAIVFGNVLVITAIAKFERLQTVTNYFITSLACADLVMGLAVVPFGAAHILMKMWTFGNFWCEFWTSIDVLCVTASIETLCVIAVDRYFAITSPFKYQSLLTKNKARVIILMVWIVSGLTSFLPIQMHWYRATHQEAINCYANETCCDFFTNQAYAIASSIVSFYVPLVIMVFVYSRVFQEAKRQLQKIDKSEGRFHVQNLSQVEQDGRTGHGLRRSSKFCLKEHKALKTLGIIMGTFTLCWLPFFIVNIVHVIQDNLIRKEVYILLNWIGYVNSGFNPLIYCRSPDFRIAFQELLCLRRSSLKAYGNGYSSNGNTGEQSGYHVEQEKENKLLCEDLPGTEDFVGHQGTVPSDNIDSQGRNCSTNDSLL
Description: Agonist activity at human recombinant beta2 adrenergic receptor expressed in CHO cells assessed as cAMP accumulation by enzyme immunoassay

Canis familiaris [21] = test: Ratio of Cmax for drug to Cmax for (R)-4'-(2-(2-(3-chlorophenyl)-2-hydroxyethylamino)ethyl)-3-isopropoxybiphenyl-4-carboxylic acid in beagle dog at 0.1 or 0.2 mg/kg, po by cassette assay; assay type: ADME, organism-based, Canis lupus familiaris; design: dose 0.2 mg/kg, route oral; conditions: in vivo

Compound	Cmax [6] [ng/mL]	AUC(0-t) at 24 h [8] [µg·h/mL]	bioavailability [9] [%]	half-life [11] [h]	clearance [13] [L/h/kg]	EC50 ([18]; read-out: EC50) [nM]	EC50 [19] [nM]	further results
CC(C)Cc1cc(-c2ccc(CCNC[C@H](O)c3ccccc3)cc2)ccc1C(=O)O								EC50 ([1]; read-out: EC50): 2.2 nM; EC50 ([2]; read-out: EC50): 8.7 nM; EC50 (Canis familiaris [3]): 18.7 nM; ED50 (Canis familiaris [3]): 0.0459 mg/kg; fraction unbound [4]: 0.14
CC(C)Sc1cc(-c2ccc(CCNC[C@H](O)c3ccccc3)cc2)ccc1C(=O)O								EC50 ([1]; read-out: EC50): 1.2 nM; EC50 ([2]; read-out: EC50): 11 nM; EC50 (Canis familiaris [3]): 11.2 nM; ED50 (Canis familiaris [3]): 0.047 mg/kg
CC(C)Oc1cc(-c2ccc(CCNC[C@H](O)c3ccccc3)cc2)ccc1C(=O)O								EC50 ([2]; read-out: EC50): 6.8 nM; inhibition in vivo at 0.01 mg/kg (Canis familiaris [5]): > 70%
CS(=O)(=O)NC(=O)c1ccc(-c2ccc(CCNC[C@H](O)c3cnccc3N)cc2)cc1OC1CCCCC1.Cl.Cl	2.5	0.0267	54	6.7	2.09			Cmax [7]: 3.3 ng/mL; clearance [10]: 2.18 L/h/kg; half-life [12]: 1.7 h; AUC(0-t) at 24 h [14]: 0.0063 µg·h/mL; clearance [15]: 3.12 L/h/kg; bioavailability [16]: 5%; bioavailability [17]: 0%; ED50 (Canis familiaris [3]): 0.0143 mg/kg
CS(=O)(=O)NC(=O)c1ccc(-c2ccc(CCNC[C@H](O)c3ccc(N)cc3)cc2)cc1OC1CCCCC1.Cl.Cl	17.5	0.212	68	5.7	0.3	0.5	> 1000	EC50 ([18]; read-out: pEC50 (converted)): 0.0631 nM
CS(=O)(=O)NC(=O)c1ccc(-c2ccc(CCNC[C@H](O)c3cccnc3)cc2)cc1NC1CCCCC1.Cl.Cl.Cl	10.3	0.0284	21	1.3	0.744	0.062	> 1000	EC50 [20]: > 10000 nM
CS(=O)(=O)NC(=O)c1ccc(-c2ccc(CCNC[C@H](O)c3ccccc3)cc2)cc1NC1CCCCC1.Cl.Cl	3.2	0.0335	22	3.9	0.594	0.14	900	
CS(=O)(=O)NC(=O)c1ccc(-c2ccc(CCNC[C@H](O)c3ccccc3)cc2)cc1Oc1ccccc1.Cl	70.3	0.757	98	4.4	0.132	0.6	> 1000	EC50 ([1]; read-out: EC50): 2.9 nM; inhibition in vivo at 0.01 mg/kg (Canis familiaris [5]): 35%
CC(C)Oc1cc(-c2ccc(CCNC[C@H](O)c3cccnc3)cc2)ccc1C(=O)NS(C)(=O)=O						1	130	
CC(C)Cc1cc(-c2ccc(CCNC[C@H](O)c3ccccc3)cc2)ccc1C(=O)NS(C)(=O)=O.Cl	24.9	0.21	67	3.5	0.318	0.46	> 1000	Cmax [7]: 6.4 ng/mL; EC50 ([1]; read-out: EC50): 0.88 nM; clearance [10]: 2.11 L/h/kg; EC50 ([2]; read-out: EC50): 2.6 nM; EC50 [20]: > 10000 nM; half-life [12]: 2.5 h; AUC(0-t) at 24 h [14]: 0.0648 µg·h/mL; bioavailability [16]: 40%; EC50 (Canis familiaris [3]): 14.2 nM; ED50 (Canis familiaris [3]): 0.0247 mg/kg; fraction unbound [4]: 0.08; inhibition in vivo at 0.01 mg/kg (Canis familiaris [5]): > 70%
CC(C)Oc1cc(-c2ccc(CCNC[C@H](O)c3cccnc3)cc2)ccc1C(=O)O								EC50 ([18]; read-out: pEC50 (converted)): 1.58 nM; EC50 ([1]; read-out: pEC50 (converted)): 10 nM; EC50 ([2]; read-out: pEC50 (converted)): 7.94 nM; EC50 [20]: > 10000 nM; Ratio (Canis familiaris [21]): 0.65
COc1cc(-c2ccc(CCNC[C@H](O)c3ccccc3)cc2)ccc1C(=O)NS(C)(=O)=O						18	730	
CCCCCOc1cc(-c2ccc(CCNC[C@H](O)c3ccccc3)cc2)ccc1C(=O)NS(C)(=O)=O						2.8	160	
CS(=O)(=O)NC(=O)c1ccc(-c2ccc(CCNC[C@H](O)c3ccccc3)cc2)cc1OC1CCCC1						0.62	750	
CS(=O)(=O)NC(=O)c1ccc(-c2ccc(CCNC[C@H](O)c3ccccc3)cc2)cc1C1CCCCC1.Cl	13.1	0.106				0.33	> 1000	
CCCSc1cc(-c2ccc(CCNC[C@H](O)c3ccccc3)cc2)ccc1C(=O)NS(C)(=O)=O.Cl	8.1	0.0919				1.4	> 1000	
CS(=O)(=O)NC(=O)c1ccc(-c2ccc(CCNC[C@H](O)c3ccccc3)cc2)cc1OC1CCCCCC1						0.38	220	
CS(=O)(=O)NC(=O)c1ccc(-c2ccc(CCNC[C@H](O)c3ccccc3)cc2)cc1SC1CCCCC1.Cl	8	0.0563				0.5	840	
CC(C)Nc1cc(-c2ccc(CCNC[C@H](O)c3cccnc3)cc2)ccc1C(=O)NS(C)(=O)=O.Cl.Cl.Cl	1.9	0.0104	12	2.7	0.984	0.2	320	
CS(=O)(=O)NC(=O)c1ccc(-c2ccc(CCNC[C@H](O)c3cccnc3)cc2)cc1C1CCCC1.Cl.Cl	1.4	0.0134	18	1.4	1.31	0.29	> 1000	
O=C(O)c1ccc(-c2ccc(CCNC[C@H](O)c3cccnc3)cc2)cc1OC1CCCCC1								EC50 ([18]; read-out: pEC50 (converted)): 0.251 nM; EC50 ([1]; read-out: pEC50 (converted)): 1.26 nM; EC50 ([2]; read-out: EC50): 14.1 nM; EC50 ([2]; read-out: pEC50 (converted)): 5.01 nM; EC50 [20]: > 10000 nM; Ratio (Canis familiaris [21]): 0.48; EC50 (Canis familiaris [3]): 4 nM; ED50 (Canis familiaris [3]): 0.065 mg/kg; fraction unbound [4]: 0.11
CC(C)Sc1cc(-c2ccc(CCNC[C@H](O)c3cccnc3)cc2)ccc1C(=O)NS(C)(=O)=O.Cl.Cl	5.3	0.0509	14	4.3	0.324	0.19	240	
CC(C)Oc1cc(-c2ccc(CCNC[C@H](O)c3ccc(N)cc3)cc2)ccc1C(=O)NS(C)(=O)=O						5.5	> 1000	EC50 ([18]; read-out: pEC50 (converted)): 0.2 nM
CS(=O)(=O)NC(=O)c1ccc(-c2ccc(CCNC[C@H](O)c3ccccc3)cc2)cc1C1CCCC1.Cl	17.1	0.211	50	4.7	0.24	0.41	> 1000	
CS(=O)(=O)NC(=O)c1ccc(-c2ccc(CCNC[C@H](O)c3ccccc3)cc2)cc1CC1CCCCC1.Cl	27.9	0.23	70	3.9	0.294	0.54	370	
CC(C)Oc1cc(-c2ccc(CCNC[C@H](O)c3ccccc3)cc2)ccc1C(=O)NS(C)(=O)=O.Cl	33.4	0.561	75	12	0.138	3.1	> 1000	EC50 ([18]; read-out: pEC50 (converted)): 0.631 nM; EC50 ([1]; read-out: EC50): 4.9 nM; EC50 ([1]; read-out: pEC50 (converted)): 1 nM; inhibition in vivo at 0.01 mg/kg (Canis familiaris [5]): 51%
CC(C)Cc1cc(-c2ccc(CCNC[C@H](O)c3cccnc3)cc2)ccc1C(=O)NS(C)(=O)=O.Cl.Cl	2.6	0.012	21	0.6	2.15	0.32	490	
CC(C)Cc1cc(-c2ccc(CCNC[C@H](O)c3cccnc3)cc2)ccc1C(=O)O								Ratio (Canis familiaris [21]): 0.36
